Assay results taken from paper PMC10945555, “Improving Activity of New Arylurea Agents against Multidrug-Resistant and Biofilm-Producing Staphylococcus epidermidis” (ACS Medicinal Chemistry Letters, 2024).
In brackets after ≈: the same amount, converted by molar mass. Where two headings read alike, the source gives them in different places.

What was measured:
[1] = tested on: Staphylococcus aureus ATCC BAA-976; assay: MIC, broth microdilution, MDR/BPSA reference strain; type: cell-based; conditions: ATCCBAA976; Staphylococcus aureus ATCC BAA-976; read-out: MIC MDR/BPSA
From the text: These strains included susceptible, multidrug-resistant, and biofilm-producing strains of S. epidermidis and S. aureus (MSSE, MDR/BPSE, and MDR/BPSA, respectively). The cornerstone antibiotic linezolid served as a positive control (Table 1). The impact of structural modifications at the aryloxy fragment and the aromatic moiety bound to the propyl linker on the inhibitory activity was initially investigated. […] Further optimization focused on evaluating the impact of the type of substituent and its position on the arylsulfonamide fragment’s activity.
(§1) 2 Biological assay protocols
(§2) Microbiological tests were carried out under aseptic conditions in a laminar chamber of the 2nd […]
(§3) (BioTectum 1.2, Alchem Poland). The assessment of antimicrobial activity was carried out for final compounds in the form of free bases, soluble in DMSO (Merck, Germany), at the initial […]
(§4) concentration of 1 mg/mL. […]
were provided by Cayman Chemical, USA.
The activity of all newly synthesized compounds was tested in vitro on a panel of selected reference strains from the American Type Culture Collection (ATCC) of Gram-positive […]
(§5) 2.2 Effect of evaluated compounds on planktonic cells
(§6) The susceptibility of three reference bacterial strains (Staphylococcus epidermidis ATCC […]
(§7) Table S1) and 81 clinical MDR S. epidermidis (Table S2) to the tested compounds was assessed by determining the MIC value (Minimal Inhibitory Concentration) by microdilution in a liquid medium in 96-well flat-bottom cell culture plates (Nest Biotechnology Scientific, USA). The antibacterial properties of the compo unds were tested in the concentration range from 50 µg/mL to 0.1 µg/mL by making a series of double dilutions of the compound in liquid Mueller -Hinton II Broth Cation Adjusted (MHB II, BBL TM, USA) according to the European Committee on […]
(§8) Antimicrobial Susceptibility Testing guidelines (EUCAST).2,3 The determinations were performed twice. The MIC50 and MIC90 values were determined for each of the tested

[2] = tested on: clinical MDR Staphylococcus epidermidis isolates; assay: MIC, broth microdilution, 81 clinical MDR strains; type: cell-based; conditions: Staphylococcus epidermidis
Description: as §1, §2, §3, §4
were provided by Cayman Chemical, USA. […]
The antibacterial activity of selected compounds was also tested on a panel of 81 unrelated, multidrug -resistant clinical strains of Staphylococcus epidermidis from the own collection of the Department of Pharmaceutical Microbiology of the Jagiellonian University Medical College.
as §5, §6, §7, §8

In the case of O=S(=O)(NC1CCN(CCC(Oc2ccc(C(F)(F)F)cc2)c2cccs2)CC1)c1cccc(Br)c1 (stereo not shown) [Compound 18], the MIC [1] is reported as 50 µg/mL (≈ 82.8 µM), the MIC ([2]; clinical strain 1 (Table S2), read-out: MIC) is reported as 0.8 µg/mL (≈ 1.33 µM) and the MIC ([2]; clinical strain 2 (Table S2), read-out: MIC) is reported as 3.12 µg/mL (≈ 5.18 µM). It also gave an MIC ([2]; clinical strain 3 (Table S2), read-out: MIC) of 6.25 µg/mL (≈ 10.4 µM), an MIC ([2]; clinical strain 4 (Table S2), read-out: MIC) of 50 µg/mL (≈ 82.8 µM) and an MIC ([2]; clinical strain 5 (Table S2), read-out: MIC) of 1.6 µg/mL (≈ 2.65 µM). For the same compound, the MIC ([2]; clinical strain 6 (Table S2), read-out: MIC) was 12.5 µg/mL (≈ 20.7 µM), the MIC ([2]; clinical strain 7 (Table S2), read-out: MIC) was 25 µg/mL (≈ 41.4 µM) and the MIC ([2]; clinical strain 8 (Table S2), read-out: MIC) was 3.12 µg/mL (≈ 5.18 µM). It also gave an MIC ([2]; clinical strain 9 (Table S2), read-out: MIC) of 50 µg/mL (≈ 82.8 µM), an MIC ([2]; clinical strain 10 (Table S2), read-out: MIC) of 50 µg/mL (≈ 82.8 µM) and an MIC ([2]; clinical strain 11 (Table S2), read-out: MIC) of 6.25 µg/mL (≈ 10.4 µM). For the same compound, the MIC ([2]; clinical strain 12 (Table S2), read-out: MIC) was 12.5 µg/mL (≈ 20.7 µM), the MIC ([2]; clinical strain 13 (Table S2), read-out: MIC) was 12.5 µg/mL (≈ 20.7 µM) and the MIC ([2]; clinical strain 14 (Table S2), read-out: MIC) was 50 µg/mL (≈ 82.8 µM). For the same compound, the MIC ([2]; clinical strain 15 (Table S2), read-out: MIC) was 50 µg/mL (≈ 82.8 µM), the MIC ([2]; clinical strain 16 (Table S2), read-out: MIC) was 50 µg/mL (≈ 82.8 µM) and the MIC ([2]; clinical strain 17 (Table S2), read-out: MIC) was 12.5 µg/mL (≈ 20.7 µM). It also gave an MIC ([2]; clinical strain 18 (Table S2), read-out: MIC) of 50 µg/mL (≈ 82.8 µM), an MIC ([2]; clinical strain 19 (Table S2), read-out: MIC) of 6.25 µg/mL (≈ 10.4 µM) and an MIC ([2]; clinical strain 20 (Table S2), read-out: MIC) of 3.12 µg/mL (≈ 5.18 µM). It also gave an MIC ([2]; clinical strain 21 (Table S2), read-out: MIC) of 3.12 µg/mL (≈ 5.18 µM), an MIC ([2]; clinical strain 22 (Table S2), read-out: MIC) of 3.12 µg/mL (≈ 5.18 µM) and an MIC ([2]; clinical strain 23 (Table S2), read-out: MIC) of 0.8 µg/mL (≈ 1.33 µM). The MIC ([2]; clinical strain 24 (Table S2), read-out: MIC) was 3.12 µg/mL (≈ 5.18 µM), the MIC ([2]; clinical strain 25 (Table S2), read-out: MIC) was 6.25 µg/mL (≈ 10.4 µM) and the MIC ([2]; clinical strain 26 (Table S2), read-out: MIC) was 50 µg/mL (≈ 82.8 µM). It also gave an MIC ([2]; clinical strain 27 (Table S2), read-out: MIC) of 0.8 µg/mL (≈ 1.33 µM), an MIC ([2]; clinical strain 28 (Table S2), read-out: MIC) of 50 µg/mL (≈ 82.8 µM) and an MIC ([2]; clinical strain 29 (Table S2), read-out: MIC) of 50 µg/mL (≈ 82.8 µM). The MIC ([2]; clinical strain 30 (Table S2), read-out: MIC) was 50 µg/mL (≈ 82.8 µM), the MIC ([2]; clinical strain 31 (Table S2), read-out: MIC) was 50 µg/mL (≈ 82.8 µM) and the MIC ([2]; clinical strain 32 (Table S2), read-out: MIC) was 50 µg/mL (≈ 82.8 µM). It also gave an MIC ([2]; clinical strain 33 (Table S2), read-out: MIC) of 50 µg/mL (≈ 82.8 µM), an MIC ([2]; clinical strain 34 (Table S2), read-out: MIC) of 50 µg/mL (≈ 82.8 µM) and an MIC ([2]; clinical strain 35 (Table S2), read-out: MIC) of 1.6 µg/mL (≈ 2.65 µM). It also gave an MIC ([2]; clinical strain 36 (Table S2), read-out: MIC) of 50 µg/mL (≈ 82.8 µM), an MIC ([2]; clinical strain 37 (Table S2), read-out: MIC) of 50 µg/mL (≈ 82.8 µM) and an MIC ([2]; clinical strain 38 (Table S2), read-out: MIC) of 50 µg/mL (≈ 82.8 µM). For the same compound, the MIC ([2]; clinical strain 39 (Table S2), read-out: MIC) was 50 µg/mL (≈ 82.8 µM), the MIC ([2]; clinical strain 40 (Table S2), read-out: MIC) was 50 µg/mL (≈ 82.8 µM) and the MIC ([2]; clinical strain 41 (Table S2), read-out: MIC) was 6.25 µg/mL (≈ 10.4 µM). It also gave an MIC ([2]; clinical strain 42 (Table S2), read-out: MIC) of 1.6 µg/mL (≈ 2.65 µM), an MIC ([2]; clinical strain 43 (Table S2), read-out: MIC) of 1.6 µg/mL (≈ 2.65 µM) and an MIC ([2]; clinical strain 44 (Table S2), read-out: MIC) of 50 µg/mL (≈ 82.8 µM). For the same compound, the MIC ([2]; clinical strain 45 (Table S2), read-out: MIC) was 50 µg/mL (≈ 82.8 µM), the MIC ([2]; clinical strain 46 (Table S2), read-out: MIC) was 50 µg/mL (≈ 82.8 µM) and the MIC ([2]; clinical strain 47 (Table S2), read-out: MIC) was 50 µg/mL (≈ 82.8 µM). For the same compound, the MIC ([2]; clinical strain 48 (Table S2), read-out: MIC) was 50 µg/mL (≈ 82.8 µM), the MIC ([2]; clinical strain 49 (Table S2), read-out: MIC) was 50 µg/mL (≈ 82.8 µM) and the MIC ([2]; clinical strain 50 (Table S2), read-out: MIC) was 50 µg/mL (≈ 82.8 µM). For the same compound, the MIC ([2]; clinical strain 51 (Table S2), read-out: MIC) was 50 µg/mL (≈ 82.8 µM), the MIC ([2]; clinical strain 52 (Table S2), read-out: MIC) was 50 µg/mL (≈ 82.8 µM) and the MIC ([2]; clinical strain 53 (Table S2), read-out: MIC) was 50 µg/mL (≈ 82.8 µM). For the same compound, the MIC ([2]; clinical strain 54 (Table S2), read-out: MIC) was 50 µg/mL (≈ 82.8 µM), the MIC ([2]; clinical strain 55 (Table S2), read-out: MIC) was 50 µg/mL (≈ 82.8 µM) and the MIC ([2]; clinical strain 56 (Table S2), read-out: MIC) was 50 µg/mL (≈ 82.8 µM). It also gave an MIC ([2]; clinical strain 57 (Table S2), read-out: MIC) of 50 µg/mL (≈ 82.8 µM), an MIC ([2]; clinical strain 58 (Table S2), read-out: MIC) of 50 µg/mL (≈ 82.8 µM) and an MIC ([2]; clinical strain 59 (Table S2), read-out: MIC) of 50 µg/mL (≈ 82.8 µM). For the same compound, the MIC ([2]; clinical strain 60 (Table S2), read-out: MIC) was 50 µg/mL (≈ 82.8 µM), the MIC ([2]; clinical strain 61 (Table S2), read-out: MIC) was 50 µg/mL (≈ 82.8 µM) and the MIC ([2]; clinical strain 62 (Table S2), read-out: MIC) was 50 µg/mL (≈ 82.8 µM). For the same compound, the MIC ([2]; clinical strain 63 (Table S2), read-out: MIC) was 50 µg/mL (≈ 82.8 µM), the MIC ([2]; clinical strain 64 (Table S2), read-out: MIC) was 50 µg/mL (≈ 82.8 µM) and the MIC ([2]; clinical strain 65 (Table S2), read-out: MIC) was 6.25 µg/mL (≈ 10.4 µM). The MIC ([2]; clinical strain 66 (Table S2), read-out: MIC) was 3.12 µg/mL (≈ 5.18 µM), the MIC ([2]; clinical strain 67 (Table S2), read-out: MIC) was 50 µg/mL (≈ 82.8 µM) and the MIC ([2]; clinical strain 68 (Table S2), read-out: MIC) was 50 µg/mL (≈ 82.8 µM). For the same compound, the MIC ([2]; clinical strain 69 (Table S2), read-out: MIC) was 50 µg/mL (≈ 82.8 µM), the MIC ([2]; clinical strain 70 (Table S2), read-out: MIC) was 50 µg/mL (≈ 82.8 µM) and the MIC ([2]; clinical strain 71 (Table S2), read-out: MIC) was 50 µg/mL (≈ 82.8 µM). It also gave an MIC ([2]; clinical strain 72 (Table S2), read-out: MIC) of 50 µg/mL (≈ 82.8 µM), an MIC ([2]; clinical strain 73 (Table S2), read-out: MIC) of 50 µg/mL (≈ 82.8 µM) and an MIC ([2]; clinical strain 74 (Table S2), read-out: MIC) of 50 µg/mL (≈ 82.8 µM). The MIC ([2]; clinical strain 75 (Table S2), read-out: MIC) was 50 µg/mL (≈ 82.8 µM), the MIC ([2]; clinical strain 76 (Table S2), read-out: MIC) was 50 µg/mL (≈ 82.8 µM) and the MIC ([2]; clinical strain 77 (Table S2), read-out: MIC) was 0.8 µg/mL (≈ 1.33 µM). For the same compound, the MIC ([2]; clinical strain 78 (Table S2), read-out: MIC) was 50 µg/mL (≈ 82.8 µM), the MIC ([2]; clinical strain 79 (Table S2), read-out: MIC) was 50 µg/mL (≈ 82.8 µM) and the MIC ([2]; clinical strain 80 (Table S2), read-out: MIC) was 50 µg/mL (≈ 82.8 µM). For the same compound, the MIC ([2]; clinical strain 81 (Table S2), read-out: MIC) was 3.12 µg/mL (≈ 5.18 µM), the MIC ([2]; mean of MIC values against clinical MDR-SE isolates, read-out: mean MIC) was 35.2 µg/mL (≈ 58.3 µM) and the MIC50 ([2]; 81 clinical strains, concentration inhibiting growth of 50% clinical isolates) was 50 µg/mL (≈ 82.8 µM). The MIC90 ([2]; 81 clinical strains, concentration inhibiting growth of 90% of clinical isolates) was 50 µg/mL (≈ 82.8 µM).
